# According to US20240116985A1, “STAPLED PEPTIDES AND METHODS THEREOF” (priority 2020, published 2024):
# Like-named read-outs stand apart in the source and are kept apart here.
# Key:
# [1] = target: T1, beta-catenin/TCF4 engagement (Homo sapiens, UniProt P35222); test: Nano-BRET target engagement assay (B-cat-Halo & TCF4-Luc in HEK293 cells); type: cell-based
# T1 construct: expressed in transfected cells; host or cells: HEK293
# T1 sequence (P35222 1-781): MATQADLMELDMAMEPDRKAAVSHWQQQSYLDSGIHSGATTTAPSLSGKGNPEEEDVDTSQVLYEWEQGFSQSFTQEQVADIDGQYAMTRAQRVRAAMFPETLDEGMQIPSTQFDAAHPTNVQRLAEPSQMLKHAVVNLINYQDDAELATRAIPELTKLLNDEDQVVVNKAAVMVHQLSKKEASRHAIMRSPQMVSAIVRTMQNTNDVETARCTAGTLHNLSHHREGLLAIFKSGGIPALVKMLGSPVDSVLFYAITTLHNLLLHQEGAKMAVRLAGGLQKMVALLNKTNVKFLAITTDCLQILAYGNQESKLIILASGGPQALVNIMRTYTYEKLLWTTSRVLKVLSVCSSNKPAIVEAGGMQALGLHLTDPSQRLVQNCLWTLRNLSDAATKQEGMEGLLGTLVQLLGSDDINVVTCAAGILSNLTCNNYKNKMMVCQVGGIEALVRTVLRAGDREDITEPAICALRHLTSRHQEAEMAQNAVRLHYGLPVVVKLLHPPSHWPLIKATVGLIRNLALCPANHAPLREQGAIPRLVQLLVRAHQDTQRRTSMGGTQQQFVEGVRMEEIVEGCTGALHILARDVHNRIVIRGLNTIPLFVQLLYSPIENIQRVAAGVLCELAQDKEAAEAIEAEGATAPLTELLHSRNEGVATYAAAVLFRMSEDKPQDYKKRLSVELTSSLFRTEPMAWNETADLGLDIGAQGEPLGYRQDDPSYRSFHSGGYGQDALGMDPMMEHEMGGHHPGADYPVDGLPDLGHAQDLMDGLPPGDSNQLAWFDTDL
# [2] = target: T2, full-length beta-Catenin (Uniprot ID P35222) (Homo sapiens, UniProt P35222); test: Fluorescence polarization IC50 (beta-catenin / 5FAM-TCF4 10-53 competition); type: binding
# T2 construct: 10 nM full-length beta-Catenin (Uniprot ID P35222)
# T2 sequence (P35222 1-781): T1 sequence (P35222 1-781)
# [3] = Solubility in PBS; type: physicochemical
# How it was run: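 Solubility is derived from HPLC peak areas: the ratio of the PBS supernatant peak to a 50 μM DMSO peptide peak, times 50 uM.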
# [4] = CHI Log D procedure; type: physicochemical; details: for chromatographic logD: pH 7.4, CHI Log D
# [5] = test system: TCF/LEF luciferase Reporter in DLD1 cells; test: TCF reporter assay (DLD1 TCF/LEF luciferase reporter, Bright-Glo); type: cell-based
# How it was run: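 DLD1 cells stably carrying a TCF/LEF luciferase reporter were plated at 5000 cells/well in RPMI + 4% FBS and treated overnight with a 1:2 compound dilution series. Bright-Glo luminescence read on day 3; viability by CellTiter-Glo. Absolute IC50 determined.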
# [6] = read-out: DLD1 4% Abs IC50, DLD1 4%
# [7] = absolute IC50, read-out: NanoBRET Abs IC50
# [8] = absolute IC50, read-out: DLD1 reporter assay Abs IC50
Compound,IC50 ([1]; read-out: NanoBRET Abs IC50),IC50 ([1]; read-out: NanoBRET IC50),IC50 ([2]; read-out: beta-Catenin FP IC50),Solubility ([3]; Solubility (uM)),chromatographic logD [4],"IC50 [5, 6]","IC50 ([2]; fluorescence polarization, beta-catenin, read-out: FP EC50)",Solubility [3],CHI Log D ([4]; pH 7.4),"IC50 [1, 7]","IC50 [5, 8]","IC50 ([2]; fluorescence polarization, read-out: beta-Catenin FP IC50)","IC50 ([5]; read-out: DLD1 4% Abs IC50, DLD1 reporter, 4%, absolute IC50)"
"CC(=O)N1CCC[C@]12CC=CCCCC1(CCCC=CCCCOC(=O)N3CC[C@@](C(=O)N[C@@H](Cc4ccccc4Cl)C(=O)N[C@@H](Cc4csc5ccccc45)C(=O)N[C@@H](CCC(N)=O)C(N)=O)(C3)NC(=O)[C@H](CC(N)=O)NC(=O)[C@H](Cc3ccccc3)NC(=O)[C@H](CC(C)C)NC(=O)[C@H](C)NC(=O)[C@H](CN(CC(=O)O)CC(F)(F)F)NC(=O)[C@H](CC(=O)O)NC1=O)NC(=O)[C@H](CC(C)(C)C)NC(=O)[C@H](CC(=O)O)NC2=O (stereo partly drawn) [I-1002, Ac-PL3-Asp-Npg-B5-Asp-TfeGA-Ala-Leu-Phe-Asn-PyrS2-2C1F-BztA-Gln-NH2]",–,–,0.009 µM,–,2.6,–,–,–,–,29.8 µM,> 20 µM,–,–
"CC(=O)N1CCC[C@]12CC=CCCCC1(CCCC=CCCCCCC[C@@](C)(C(=O)N[C@@H](Cc3ccccc3Cl)C(=O)N[C@@H](Cc3csc4ccccc34)C(=O)N[C@@H](CCC(N)=O)C(N)=O)NC(=O)[C@H](CC(C)C)NC(=O)[C@H](Cc3ccccc3)NC(=O)[C@H](C)NC(=O)[C@H](C)NC(=O)[C@H](CC(=O)O)NC(=O)[C@H](CC(=O)O)NC1=O)NC(=O)[C@H](CC(C)(C)C)NC(=O)[C@H](CC(=O)O)NC2=O (stereo partly drawn) [I-1095, Ac-PL3-Asp-Npg-B5-Asp-Asp-Ala-Ala-Phe-Leu-S8-2C1F-BztA-Gln-NH2]",–,–,0.015 µM,–,3.09,–,–,–,–,> 20 µM,> 20 µM,–,–
"CC(=O)N1CCC[C@]12CC=CCCCC1(CCCC=CCCCOC(=O)N3CC[C@@](C(=O)N[C@@H](Cc4ccccc4C(F)(F)F)C(=O)N[C@@H](Cc4csc5ccccc45)C(=O)N[C@@H](CCC(N)=O)C(N)=O)(C3)NC(=O)[C@H](Cc3ccccc3)NC(=O)[C@H](Cc3ccccc3)NC(=O)[C@H](C)NC(=O)[C@H](C)NC(=O)[C@H](CC(=O)O)NC(=O)[C@H](CC(=O)O)NC1=O)NC(=O)[C@H](CC(C)(C)C)NC(=O)[C@H](CC(=O)O)NC2=O (stereo partly drawn) [I-1319, Ac-PL3-Asp-Npg-B5-Asp-Asp-Ala-Ala-Phe-Phe-PyrS2-2F3MeF-BztA-Gln-NH2]",–,–,–,–,–,–,–,10 µM,–,4.2 µM,–,0.01 µM,2.1 µM

# Results, then the molecule that gave them:
IC50 ([1]; read-out: NanoBRET Abs IC50),IC50 ([1]; read-out: NanoBRET IC50),IC50 ([2]; read-out: beta-Catenin FP IC50),Solubility ([3]; Solubility (uM)),chromatographic logD [4],"IC50 [5, 6]","IC50 ([2]; fluorescence polarization, beta-catenin, read-out: FP EC50)",Solubility [3],CHI Log D ([4]; pH 7.4),"IC50 [1, 7]","IC50 [5, 8]","IC50 ([2]; fluorescence polarization, read-out: beta-Catenin FP IC50)","IC50 ([5]; read-out: DLD1 4% Abs IC50, DLD1 reporter, 4%, absolute IC50)",Compound
18.9 µM,12.7 µM,0.007 µM,47 µM,2.1,16.5 µM,–,–,–,–,–,–,–,"CC(=O)N1CCC[C@]12CC=CCCCC1(CCCC=CCCCOC(=O)N3CC[C@@](C(=O)N[C@@H](Cc4ccsc4)C(=O)N[C@@H](Cc4csc5ccccc45)C(=O)N[C@H](C(N)=O)[C@@H](C)O)(C3)NC(=O)[C@H](CC(N)=O)NC(=O)[C@H](Cc3ccccc3)NC(=O)[C@H](C)NC(=O)[C@H](C)NC(=O)[C@H](CC(=O)O)NC(=O)[C@H](CC(=O)O)NC1=O)NC(=O)[C@H](CC(C)(C)C)NC(=O)[C@H](CC(=O)O)NC2=O (stereo partly drawn) [I-814, Ac-PL3-Asp-Npg-B5-Asp-Asp-Ala-Ala-Phe-Asn-PyrS2-3Thi-BztA-Thr-NH2]"
–,–,0.009 µM,–,–,10.1 µM,1.38 µM,10 µM,1.95,–,–,–,–,"CCN(CC(=O)O)C[C@@H]1NC(=O)[C@H](CC(=O)O)NC(=O)C2(CCCC=CCCCOC(=O)N3CC[C@@](C(=O)N[C@@H](Cc4ccsc4)C(=O)N[C@@H](Cc4csc5ccccc45)C(=O)N[C@@H](CCC(N)=O)C(N)=O)(C3)NC(=O)[C@H](CC(C)C)NC(=O)[C@H](Cc3ccccc3)NC(=O)[C@H](C)NC(=O)[C@H](C)NC1=O)CCCC=CC[C@]1(CCCN1C(C)=O)C(=O)N[C@@H](CC(=O)O)C(=O)N[C@@H](CC(C)(C)C)C(=O)N2 (stereo partly drawn) [I-973, Ac-PL3-Asp-Npg-B5-Asp-EtGA-Ala-Ala-Phe-Leu-PyrS2-3Thi-BztA-Gln-NH2]"
